{
  "source": "patent EP1481986A1",
  "about": "“Antibiotic 97518, pharmaceutically acceptable salts and compositions, and use thereof” (priority 2003, dated 2004)",
  "key": {"[1]": {"test_system": "Streptococcus pyogenes C 203", "experiment": "Mouse septicemia protection test (ip infection, survival to day 7)", "type": "in vivo, Female ICR mice", "settings": "mice infected ip with Streptococcus pyogenes C 203, Spearman-Kärber method", "experimental": "Female ICR mice (Harlan, Italy) weighing 14-16 g were infected intraperitoneally (ip) with 6.5 x 10^2 cells of Streptococcus pyogenes C 203 in 0.5 mL of saline supplemented with 1% peptone. Antibiotic 97518 was administered intravenously (iv) or subcutaneously (sc) within 10-15 min after infection. The 50% effective doses (ED50) were calculated by the Spearman-Kärber method (D.J. Finney. The Spearman-Kärber method. In: Statistical Methods in Biological Assay. (1952) pp. 524-530, Charles Griffin &Co., Ltd., London) from the percentage of animals surviving to day 7 at each dose."}, "[2]": {"test_system": "997 Neisseria gonorrhoeae clin.is.", "experiment": "Microbroth dilution MIC (NCCLS M7-A5)", "type": "cell-based", "settings": "10^4 CFU/ml, 35°C, 18-24 hours", "experimental": "(§1) Antimicrobial activity of antibiotic 97518 was determined by using microbroth dilution method with standard U-bottom 96-well plates according to The National Committee for Clinical Laboratory Standards (Methods for Dilution Antimicrobial Susceptibility Tests for Bacteria that Grow Aerobically - Fifth Edition; Approved Standard. NCCLS document M7-A5 Vol.20 No. 2). The strains used were clinical isolates or strains from American Type Culture Collection (ATCC). Powder of antibiotic 97518 was dissolved in DMSO; this solution was further diluted with distilled water. The media used were cation-adjusted Mueller Hinton broth (CAMHB) for Staphylococcus aureus, Moraxella catarrhalis, Enterococci; Todd Hewitt broth (THB) for Streptococcus pyogenes, Streptococcus pneumoniae. Inocula were 10^4 CFU/ml. All strains were incubated at 35°C in air. Incubation time was 18-24 hours. […]"}, "[3]": {"test_system": "1652 Enterococcus faecium cl.isol. Van A", "experiment": "Microbroth dilution MIC (NCCLS M7-A5)", "type": "cell-based", "design": "unit not given here", "settings": "CAMHB, 10^4 CFU/ml, 35°C, 18-24 hours", "experimental": "as §1"}, "[4]": {"test_system": "Staphylococcus aureus strain ATCC6538P (L100)", "experiment": "Macromolecular synthesis (incorporation of labelled precursors of DNA, RNA, protein and cell wall)", "type": "cell-based", "settings": "20 min at 37°C", "experimental": "Staphylococcus aureus strain ATCC6538P (L100) was grown overnight at 37 °C in a rotary bath in Iso-Sensitest Broth (Oxoid Ltd., Basingstoke, Hampshire, England). The culture was diluted up to an OD540 = 0.03 in a 1:1 (v/v) mixture of Iso-Sensitest broth : Davis Mingioli Broth (Difco Labs, Detroit, USA) added with 1g/l of KH2PO4, and was incubated at 37°C. To determine the antibiotic dose/response effects on RNA, DNA, protein and cell wall biosyntheses, the culture was divided in four parts when the optical density reached 0.4. Individual precursors of DNA ([…] ^3H-thymidine + 0.1g/l unlabelled adenosine), RNA (5 mCi/l ^3H-uracil), protein (10 mCi/l ^3H-leucine), and cell wall (1 mCi/l ^3H-N-acetylglucosamine + 3.5 mg/l unlabelled N-acetylglucosamine) biosyntheses were then added, resptectively, to each one of the four aliquots and, immediately after the addition, 100 µl of the resulting culture was dispensed in wells of microtiter plate (96 wells format), containing 10 µl of solutions of antibiotic 97518. After 20 min of incubation at 37°C, 0.1 ml ice-cold 20% (w/v) trichloroacetic acid was added to stop the incorporation. After 30 minutes at 4°, the samples were filtered on Filtermat A (Wallac) using an 96 well Wallac Cell Harvester. The Radioactivity not incorporated was washed away sequentially with water and ethanol. The radioactivity of the biopolymers was counted on the filters, using a Beta Plate System (Wallac)."}, "[5]": {"settings": "in vivo"}},
  "data": [
    {"compound": "C=C1NC(=O)[C@H](C(C)C)NC(=O)[C@H](NC(=O)/C(=C/C)NC(=O)[C@@H](N)[C@@H](C)CC)CSC[C@@H](C(=O)N[C@H]2C(=O)N3CCC[C@H]3C(=O)NCC(=O)N[C@H](C(=O)N[C@H](C(=O)N[C@@H]3CSC[C@@H]4NC(=O)CNC(=O)[C@@H](CSC[C@@H]5NC(=O)[C@H](Cc6c[nH]cn6)NC(=O)[C@@H](CSC[C@@H](C(=O)O)NC5=O)NC4=O)NC(=O)CNC(=O)CNC(=O)CNC(=O)[C@H](CCC(=O)O)NC3=O)[C@@H](C)O)CS[C@H]2C)NC(=O)[C@H](Cc2c[nH]c3ccccc23)NC1=O", "note": "[Antibiotic 97518]", "values": [
      {"measurement": "ED50", "setting": "[1]; administered intravenously (iv) within 10-15 min after infection", "value": 3.75, "unit": "mg/kg"},
      {"measurement": "ED50", "setting": "[1]; administered subcutaneously (sc) within 10-15 min after infection", "value": 3.75, "unit": "mg/kg"},
      {"measurement": "MIC", "setting": "[2]", "value": 64, "unit": "mg/mL"},
      {"measurement": "MIC", "setting": "[3]", "value": 64},
      {"measurement": "other macromolecular syntheses (DNA, RNA, protein)", "setting": "[4]; at 2.5 µg/ml (same concentrations)", "value": "only partially inhibited"},
      {"measurement": "cell wall synthesis (3H-N-acetylglucosamine incorporation)", "setting": "[4]; at 2.5 µg/ml", "value": "blocked cell wall synthesis completely"},
      {"measurement": "not toxic up to (dose)", "setting": "[5]", "value": "up to 100 mg/Kg"}
    ]},
    {"compound": "nisin [reference compound]", "values": [
      {"measurement": "the four macromolecular syntheses (DNA, RNA, protein, cell wall)", "setting": "[4]; control experiments", "value": "inhibited all the four macromolecular syntheses at the same concentration"}
    ]}
  ]
}
